From patent US20040132121A1, “Method of identifying antibacterial compounds” (priority 2000, published 2004)
Entries after “also recorded” stand apart in the source; their conditions may differ.

Legend:
[1] = test system: Enterococcus faecalis ATCC 33186; test: Bacterial growth inhibition screen (A620); assay type: cell-based; conditions: overnight 35° C.; for inhibition at 50 µg/mL: ATCC33186, compound 50 μg/ml, read-out: inhibition of growth of E. faecalis
Procedure: (§1) Compounds with high similarity scores, or at the intersection of the results of searches using a number of different approaches, and available from the NCI or Molecular Science libraries were obtained and screened for inhibition of growth of E. coli ATCC 35218, Klebsiella pneumoniae ATCC 13885, Pseudomonas aeruginosa ATCC 27853, Staphylococcus aureus ATCC 25923 and Enterococcus faecalis ATCC 33186 as follows. Compounds were supplied dissolved in DMSO at 1 mg/ml in a 96 well tray format. Six corresponding slave plates were prepared by adding 85 μl of sterile water, and 100 μl of two times Muller Hinton broth. Dissolved compounds (5 μl) from the master plate was added to the corresponding well in slave plates giving a final concentration of 50 μg/ml.
(§2) Plates were then transferred to a PC2 Laboratory for inoculation with selected bacterial strains. The strains are freshly grown and diluted in normal saline to 0.5 McFarland Standard (NCCLS Performance standard for Dilution Antimicrobial Susceptibility Testing M7-A4 January 1997). This solution was further diluted 1:10 in normal saline to form the bacterial inoculation culture. 10 μl was used to inoculate each well. Plates were covered and placed in a 35° C. incubator over night before A620 was determined. Tetracycline was used as a standard antimicrobial compound.

[2] = test system: Staphylococcus aureus ATCC 25923; test: Bacterial growth inhibition screen (A620); assay type: cell-based; conditions: overnight 35° C.; for inhibition at 50 µg/mL: ATCC25923, compound 50 μg/ml, read-out: inhibition of growth of S. aureus
Procedure: as §1, §2

[3] = target: binding of E. coli δ to E. coli β (Escherichia coli, UniProt P0A988); test: biochemical; conditions: for IC50: IC50 δ-binding, Table 21
[4] = target: T1, binding of E. coli α to E. coli β (Escherichia coli, UniProt P0A988); test: biochemical; conditions: Table 21; Molsci (CMS) compounds, buffer BB37 (10 mM MnCl2); read-out: IC50 α-binding
T1 construct: made in house
Procedure: Recombinantly expressed wild type E. coli α subunit was purified and coated onto 96 well microtitre plates (Falcon flexible plates, Becton Dickinson) at 20 μg/ml in 100 mM Na2CO3, pH9.5 (50 μl/well, 4° C. overnight or 2 h, RT (RT). The plates were washed in WB3 (20 mM Tris (pH 7.5), 0.1 mM EDTA containing 0.05% v/v Tween 20). This buffer was used in all wash steps through out the assay. The plates were then blocked with “blotto” (5% skim milk powder in WB3, 100 μl/well, RT) until required. Immediately before use the plates were washed.
The purified synthetic peptides and β subunit were diluted in BB14 (20 mM Tris, pH 7.5, 10 mM MgCl2, 0.1 mM EDTA). Purified synthetic peptides with concentrations of 9.3-300 and 1000 μg/ml were allowed to complex with purified wild type β subunit (5 μg/ml) in a 96 well microtitre plate (Sarsted, Adelaide, Australia) pre-treated with “blotto” (30 min, RT). The reaction volume was 120 μl. The β subunit also was incubated in the absence of peptide or in the presence of the α subunit at 76.5 (μg/ml in BB14. All samples were incubated for 1 h (RT). Two 50 μl samples were transferred from each well to a corresponding well of the washed and “blocked” α subunit coated plates, and further incubated for 30 min (RT).
The plates were washed and treated with rabbit serum raised to the β subunit. The anti-serum was diluted 1:1000 in WB3 containing 10% “blotto”, dispensed at 50 μl/well and incubated for 12 min (RT). The plates were washed again and treated with sheep anti-rabbit Ig-HRP conjugate (Silenus, Melbourne, Australia) diluted 1:1000 in WB3 containing 10% “blotto” (50 μl/well). The plate was incubated for 12 min (RT). After a final washing step, 1 mM 2,2′-azino-bis (3-ethylbenzthiazoline-6-sulfonic acid) was added (110 μl/well). Colour development was assessed at 405 nm using a plate reader (Multiskan Ascent, Labsystems, Sweden).
For the CMS compounds in the of α:β assays, buffer BB37 replaced buffer BB14. Buffer BB37 contains 10 mM MnCl2 instead of the 10 mM MgCl2 used in BB14. The buffer conditions were changed to improve the reproducibility and sensitivity of the α:β binding assay.
Compounds from the CMS library were dissolved in DMSO at 1 mg/ml in a 96 well tray format. A corresponding slave plate was prepared by adding 115 μl of BB37. Dissolved compounds (5 μl) from the master plate was added to the corresponding well in slave plates giving a final concentration of 41.7 μg/ml.
Compounds were assayed for inhibition of the binding of E. coli α to E. coli β as described in Example 13.
Peptides were assayed for inhibition of the binding of E. coli α to E. coli β as described in Example 6 with the exception that buffer BB37 replaced buffer BB14 in the alpha:beta binding assay. As noted above, BB37 contains 10 mM MnCl2 instead of 10 mM MgCl2 used in BB14. Again, the change in buffer conditions was made to improve the reproducibility and sensitivity of the α:β binding assay.

E. coli ATCC 35218 = test: Bacterial growth inhibition screen (A620); assay type: cell-based; conditions: Escherichia coli, ATCC35218, test conc 35 μg/ml, overnight 35° C., read-out: percent growth inhibition E. coli
Procedure: as §1, §2

[5] = test system: Klebsiella pneumoniae ATCC 13885; test: Bacterial growth inhibition screen (A620); assay type: cell-based; conditions: ATCC13885, test conc 35 μg/ml, overnight 35° C., read-out: percent growth inhibition K. pneumoniae
Procedure: as §1, §2

[6] = test system: Pseudomonas aeruginosa ATCC 27853; test: Bacterial growth inhibition screen (A620); assay type: cell-based; conditions: ATCC27853, test conc 35 μg/ml, overnight 35° C., read-out: percent growth inhibition P. aeruginosa
Procedure: as §1, §2

Sequence of binding of E. coli δ to E. coli β (P0A988 whole entry): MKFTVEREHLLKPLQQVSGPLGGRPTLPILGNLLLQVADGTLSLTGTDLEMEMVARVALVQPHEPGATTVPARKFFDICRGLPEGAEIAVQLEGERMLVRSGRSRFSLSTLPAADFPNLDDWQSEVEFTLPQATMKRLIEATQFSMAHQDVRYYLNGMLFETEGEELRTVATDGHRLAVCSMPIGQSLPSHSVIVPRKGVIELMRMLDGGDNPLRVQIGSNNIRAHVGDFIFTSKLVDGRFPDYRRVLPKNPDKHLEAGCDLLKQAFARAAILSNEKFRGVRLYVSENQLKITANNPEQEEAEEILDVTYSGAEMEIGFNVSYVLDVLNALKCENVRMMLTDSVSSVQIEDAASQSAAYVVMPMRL
T1 sequence (P0A988 whole entry): as above

| SMILES | inhibition at 50 µg/mL [1] | inhibition at 50 µg/mL [2] | IC50 [3] | inhibition of the binding of δ to β ([3]; plate binding assay as in Example 6) | IC50 [4] | inhibition at 35 µg/mL ([1]; ATCC33186, test conc 35 μg/ml, A620, read-out: percent growth inhibition E. faecalis) | inhibition at 35 µg/mL ([2]; ATCC25923, test conc 35 μg/ml, A620, read-out: percent growth inhibition S. aureus) | inhibition at 35 µg/mL (E. coli ATCC 35218) | inhibition at 35 µg/mL [5] | inhibition at 35 µg/mL [6] |
| --- | --- | --- | --- | --- | --- | --- | --- | --- | --- | --- |
| CCC/C(=N\OC/C(Cl)=C/c1ccc(Cl)cc1)C1C(=O)CC(C)(C)CC1=O [AOC-07877] | > 50% | > 50% | 90 µM | significantly inhibited; also recorded: significant inhibitory activity | 270 µM |  |  |  |  |  |
| CCC/C(=N\OC/C(Cl)=C/c1ccc(Cl)cc1)C1C(=O)CC(C)(C)CC1=O [Peptide 07877] |  |  |  |  |  | 59.6% | 84.7% | 17.6% | 8.3% | 3.9% |
| CCC/C(=N\OC/C(C)=C(\O)c1ccc(C)cc1)C1C(=O)CC(CC)(CC)CC1=O [AOC-08944] | > 50% | > 50% | > 300 µM |  | > 300 µM |  |  |  |  |  |
